pIC50: −log10 of the molar value.
Molecular target: recombinant human LRRK2 (catalytic domain only [amino acids 970-2527], GST-tagged) (Homo sapiens (Human), UniProt Q5S007)
Experiment: LRRK2 Enzymatic Assay
Assay type: biochemical
Settings: LRRKtide substrate, [32P]-ATP
Description: LRRKtide substrate (peptide sequence RLGRDKYKTLRQIRQ, derived from human ezrin [amino acids 561-573], moesin [amino acids 539-553] and radixin [amino acids 558-570], obtained from SignalChem, catalogue #L10-58, reconstituted in 20 mM Tris-HCl at pH 7.5 to a final concentration of 1 mg/mL, assay concentration 20 μM) and recombinant human LRRK2 (catalytic domain only [amino acids 970-2527], GST-tagged, expressed in insect cells, obtained from ThermoFisher Scientific, catalogue #PV4874, 0.35 mg/mL, assay concentration 30 nM) were mixed in assay buffer (20 mM Hepes pH 7.5, 10 mM MgCl2, 1 mM EGTA, 0.02% Brij35, 0.02 mg/ml BSA, 0.1 mM Na3VO4, 2 mM DTT, 1% DMSO). Compounds of interest (in DMSO, serial 3-fold dilution from 10 μM to 0.5 nM) or control (1% DMSO) were dispensed into the kinase reaction mixture by Acoustic technology (Echo550; nanoliter range). After incubation at room temperature for 20 minutes, the kinase reaction was initiated by addition of [^32P]-ATP (Specific activity 10 μCi/μl) and the mixture was incubated at room temperature for 2 hours. The reaction was then stopped by spotting the reaction mixture on strips of phosphocellulose P81 paper. Following washing, the radioactivity of the P81 paper was measured and kinase activity data were expressed as the percent remaining kinase activity in test samples compared to vehicle (dimethyl sulfoxide) reactions. IC50 values and curve fits were obtained using Prism (GraphPad Software).

Chain of recombinant human LRRK2 (catalytic domain only [amino acids 970-2527], GST-tagged) (Q5S007 970-2527): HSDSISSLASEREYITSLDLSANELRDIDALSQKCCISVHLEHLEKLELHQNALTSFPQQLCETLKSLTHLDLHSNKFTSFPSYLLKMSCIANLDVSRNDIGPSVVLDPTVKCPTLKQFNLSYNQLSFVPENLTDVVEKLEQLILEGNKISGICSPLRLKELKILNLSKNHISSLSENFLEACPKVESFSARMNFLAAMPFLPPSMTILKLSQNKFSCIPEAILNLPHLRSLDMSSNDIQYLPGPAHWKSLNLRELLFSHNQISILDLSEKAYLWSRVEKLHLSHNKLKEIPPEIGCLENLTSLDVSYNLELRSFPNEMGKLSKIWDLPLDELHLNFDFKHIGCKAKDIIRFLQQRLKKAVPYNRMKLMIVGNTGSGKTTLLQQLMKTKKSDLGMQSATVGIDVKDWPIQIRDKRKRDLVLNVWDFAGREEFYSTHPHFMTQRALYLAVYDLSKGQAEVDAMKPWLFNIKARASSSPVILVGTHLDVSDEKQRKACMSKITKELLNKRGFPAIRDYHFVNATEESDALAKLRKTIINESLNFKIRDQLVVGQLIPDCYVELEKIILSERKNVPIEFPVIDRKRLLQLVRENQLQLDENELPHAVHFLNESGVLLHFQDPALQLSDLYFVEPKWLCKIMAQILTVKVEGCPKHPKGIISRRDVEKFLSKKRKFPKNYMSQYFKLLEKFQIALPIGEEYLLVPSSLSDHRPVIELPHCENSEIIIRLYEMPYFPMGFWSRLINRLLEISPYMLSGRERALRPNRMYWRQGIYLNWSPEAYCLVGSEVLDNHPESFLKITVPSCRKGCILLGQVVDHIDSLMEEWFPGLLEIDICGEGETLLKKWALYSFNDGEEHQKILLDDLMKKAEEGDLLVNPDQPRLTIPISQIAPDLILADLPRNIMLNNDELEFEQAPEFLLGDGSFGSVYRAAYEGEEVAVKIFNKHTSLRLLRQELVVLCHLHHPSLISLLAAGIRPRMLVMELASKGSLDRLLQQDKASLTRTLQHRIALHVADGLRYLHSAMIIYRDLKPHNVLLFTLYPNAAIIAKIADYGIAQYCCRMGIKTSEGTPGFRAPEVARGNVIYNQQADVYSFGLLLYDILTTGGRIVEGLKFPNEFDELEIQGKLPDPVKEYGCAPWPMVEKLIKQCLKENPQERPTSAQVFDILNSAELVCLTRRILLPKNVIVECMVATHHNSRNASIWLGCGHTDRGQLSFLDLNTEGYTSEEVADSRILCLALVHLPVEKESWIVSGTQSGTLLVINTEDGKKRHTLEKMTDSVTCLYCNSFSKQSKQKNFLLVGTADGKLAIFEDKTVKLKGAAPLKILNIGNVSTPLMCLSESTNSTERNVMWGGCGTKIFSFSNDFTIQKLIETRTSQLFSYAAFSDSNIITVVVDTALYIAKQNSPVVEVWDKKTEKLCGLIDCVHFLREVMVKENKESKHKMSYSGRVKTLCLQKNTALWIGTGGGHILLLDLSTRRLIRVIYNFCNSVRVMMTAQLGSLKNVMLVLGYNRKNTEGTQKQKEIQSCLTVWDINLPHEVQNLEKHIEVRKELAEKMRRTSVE

Row | Compound | pIC50
1 | COc1nn(C(C)C)cc1Nc1ncc(F)c(OC[C@H]2CC[C@H](NC(=O)C(F)(F)F)CC2)n1 [Example 213, 2,2,2-trifluoro-N-((1R,4R)-4-(((5-fluoro-2-((1-isopropyl-3-methoxy-1H-pyrazol-4-yl)amino)pyrimidin-4-yl)oxy)methyl)cyclohexyl) acetamide] | > 7.30
2 | CC(=O)N[C@H]1CC[C@H](COc2nc(Nc3cn(C4CC4)nc3C)ncc2F)CC1 [Example 196, N-((1R,4R)-4-(((2-((1-cyclopropyl-3-methyl-1H-pyrazol-4-yl)amino)-5-fluoropyrimidin-4-yl)oxy)methyl)cyclo-hexyl)acetamide] | > 7.30
3 | CC(=O)N[C@H]1CC[C@H](COc2nc(Nc3cn(C(C)(C)C#N)nc3C)ncc2F)CC1 [Example 84, N-((1R,4R)-4-(((2-((1-(2-cyanopropan-2-yl)-3-methyl-1H-pyrazol-4-yl)amino)-5-fluoropyrimidin-4-yl)oxy)methyl)cyclo-hexyl)acetamide] | > 7.30
4 | Cc1c(Nc2ncc(F)c(OC[C@H]3CC[C@H](O)CC3)n2)cnn1C(F)F [Example 235, (1R,4R)-4-(((2-((1-(difluoromethyl)-5-methyl-1H-pyrazol-4-yl)amino)-5-fluoropyrimidin-4-yl)oxy)methyl)cyclohexan-1-ol] | 6.70 to 7.30
5 | C[C@@H]1CN(c2ccc(Nc3ncc(C4CC4)c(OCC4CCC(O)CC4)n3)cc2)C[C@H](C)O1 (stereo partly drawn) [Example 129, 4-(((5-cyclopropyl-2-((4-((2S,6R)-2,6-dimethylmorpholino)phenyl)amino)pyrimidin-4-yl)oxy)methyl)cyclohexan-1-ol] | > 7.30
6 | O[C@H]1CC[C@H](COc2nc(Nc3ccc(N4CC5(CCOC5)C4)cc3)ncc2F)CC1 [Example 215, (1R,4R)-4-(((2-((4-(6-oxa-2-azaspiro[3.4]octan-2-yl)phenyl)amino)-5-fluoropyrimidin-4-yl)oxy)methyl)cyclohexan-1-ol] | > 7.30
7 | C[C@@H]1CN(c2ccc(Nc3nccc(OCC4CCC(CO)CC4)n3)cc2)C[C@H](C)O1 (stereo partly drawn) [Example 141, (4-(((2-((4-((2R,6S)-2,6-dimethylmorpholino)phenyl)amino)pyrimidin-4-yl)oxy)methyl)cyclohexyl)methanol] | 6.70 to 7.30
8 | CN[C@H]1CC[C@H](COc2ccnc(Nc3cnn(C(C)C)c3)n2)CC1 [Example 33] | < 6.40
9 | Cc1nn(C(C)(C)C#N)cc1Nc1ncc(F)c(OC[C@H]2CC[C@H](NC(=O)C(F)(F)F)CC2)n1 [Example 212, N-((1R,4R)-4-(((2-((1-(2-cyanopropan-2-yl)-3-methyl-1H-pyrazol-4-yl)amino)-5-fluoro-pyrimidin-4-yl)oxy)methyl)cyclohexyl)-2,2,2-trifluoro-acetamide] | 6.70 to 7.30
10 | NC[C@H]1CC[C@H](COc2ccnc(Nc3ccc(N4CCOCC4)cc3)n2)CC1 [Example 12, 4-(((1R,4R)-4-(aminomethyl)cyclohexyl)methoxy)-N-(4-morpholinophenyl) pyrimidin-2-amine] | > 7.30
11 | Cc1nn(C(C)(C)C#N)cc1Nc1ncc(F)c(OCC23CCC(O)(CC2)CC3)n1 [Example 257, 2-(4-((5-fluoro-4-((4-hydroxybicyclo[2.2.2]octan-1-yl)methoxy)pyrimidin-2-yl)amino)-3-methyl-1H-pyrazol-1-yl)-2-methylpropanenitrile] | 6.70 to 7.30
12 | Cc1c(Nc2ncc(Cl)c(OCC3CC(F)(F)C3)n2)cnn1C1CC(C#N)C1 (stereo not drawn) [Example 159, 3-(4-((5-chloro-4-((3,3-difluorocyclobutyl)methoxy)pyrimidin-2-yl)amino)-5-methyl-1H-pyrazol-1-yl)cyclobutane-1-carbonitrile] | > 7.30
13 | C[C@@H]1CN(c2ccc(Nc3ncc(F)c(OCC4(F)CCN(C)CC4)n3)cc2)C[C@H](C)O1 [Example 65, N-(4-((2R,6S)-2,6-dimethylmorpholino)phenyl)-5-fluoro-4-((4-fluoro-1-methylpiperidin-4-yl)methoxy)pyrimidin-2-amine] | 6.70 to 7.30
14 | CC(C)OC1CCC(COc2nc(Nc3ccc(N4CCOCC4)cc3)ncc2F)CC1 (racemic) [Example 278, 5-fluoro-4-((4-isopropoxycyclohexyl)methoxy)-N-(4-morpholinophenyl)pyrimidin-2-amine] | 6.70 to 7.30
15 | COCCn1ncc(Nc2ncc(F)c(OC[C@H]3CC[C@H](O)CC3)n2)c1Cl [Example 241, (1R,4R)-4-(((2-((5-chloro-1-(2-methoxyethyl)-1H-pyrazol-4-yl)amino)-5-fluoropyrimidin-4-yl)oxy)methyl)cyclohexan-1-ol] | 6.70 to 7.30
16 | NC1CCCC(COc2ccnc(Nc3ccc(N4CCOCC4)cc3)n2)C1 (stereo not drawn) [Example 11, 4-((3-aminocyclohexyl)methoxy)-N-(4-morpholinophenyl) pyrimidin-2-amine] | 6.70 to 7.30
17 | Cc1nn(C2CC(C#N)C2)cc1Nc1ncc(Cl)c(OCC2(F)CCNCC2)n1 (stereo not drawn) [Example 21, 3-(4-((5-chloro-4-((4-fluoropiperidin-4-yl)methoxy)pyrimidin-2-yl)amino)-3-methyl-1H-pyrazol-1-yl)cyclobutane-1-carbonitrile] | > 7.30
18 | Cc1nn(C(C)(C)C#N)cc1Nc1ncc(F)c(OCC2CC(C#N)C2)n1 (single isomer, unassigned) [Example 290, 3-(((2-((1-(2-cyanopropan-2-yl)-3-methyl-1H-pyrazol-4-yl)amino)-5-fluoropyrimidin-4-yl)oxy)methyl)cyclobutane-1-carbonitrile] | > 7.30
19 | Cc1nn(C(C)(C)C#N)cc1Nc1nccc(OCC2CCC(O)CC2)n1 (stereo not drawn) [Example 119, 2-(4-((4-((4-hydroxycyclohexyl)methoxy)pyrimidin-2-yl)amino)-3-methyl-1H-pyrazol-1-yl)-2-methylpropanenitrile] | 6.40 to 6.70
20 | Cc1nn(C(C)(C)C#N)cc1Nc1ncc(Cl)c(OCC2CCC(C(F)(F)F)CC2)n1 (stereo not drawn) [Example 157, 2-(4-((5-chloro-4-((4-(trifluoromethyl)cyclohexyl)methoxy)pyrimidin-2-yl)amino)-3-methyl-1H-pyrazol-1-yl)-2-methylpropanenitrile] | 6.70 to 7.30
21 | CC(=O)N[C@H]1CC[C@H](COc2ccnc(Nc3cn(C4CC(C#N)C4)nc3C)n2)CC1 (stereo partly drawn) [Example 75, N-((1R,4R)-4-(((2-((1-(3-cyanocyclobutyl)-3-methyl-1H-pyrazol-4-yl)amino)pyrimidin-4-yl)oxy)methyl)cyclo-hexyl)acetamide] | < 6.40
22 | CCO[C@H]1CC[C@@H](COc2nc(Nc3ccc(N4C[C@@H](C)O[C@@H](C)C4)cc3)ncc2F)CC1 [Example 276, N-(4-((2S,6R)-2,6-dimethylmorpholino)phenyl)-4-(((1S,4S)-4-ethoxycyclohexyl)methoxy)-5-fluoropyrimidin-2-amine] | 6.70 to 7.30
23 | Cc1nn(C2CC(C#N)C2)cc1Nc1ncc(Cl)c(OCC2(F)CN(C)C2)n1 (stereo not drawn) [Example 69, 3-(4-((5-chloro-4-((3-fluoro-1-methylazetidin-3-yl)methoxy)pyrimidin-2-yl)amino)-3-methyl-1H-pyrazol-1-yl)cyclobutane-1-carbonitrile] | < 6.40
24 | CC(=O)N[C@H]1CC[C@H](COc2nc(Nc3cnn(C(F)F)c3C)ncc2F)CC1 [Example 200, N-((1R,4R)-4-(((2-((1-(difluoromethyl)-5-methyl-1H-pyrazol-4-yl)amino)-5-fluoropyrimidin-4-yl)oxy)methyl)cyclo-hexyl)acetamide] | > 7.30

From patent publication US11578061B2, “Inhibitors of LRRK2 kinase” (Halia Therapeutics, Inc., priority 2021, dated 2023)
